Data on 19 compounds can be found in patent publication US10736883B2, “Triazole furan compounds as agonists of the APJ receptor” (AMGEN INC., priority 2016, dated 2020).

Structures are written as SMILES. pEC50: −log10 of the molar value.

APJ receptor, sequence (P35414 whole entry): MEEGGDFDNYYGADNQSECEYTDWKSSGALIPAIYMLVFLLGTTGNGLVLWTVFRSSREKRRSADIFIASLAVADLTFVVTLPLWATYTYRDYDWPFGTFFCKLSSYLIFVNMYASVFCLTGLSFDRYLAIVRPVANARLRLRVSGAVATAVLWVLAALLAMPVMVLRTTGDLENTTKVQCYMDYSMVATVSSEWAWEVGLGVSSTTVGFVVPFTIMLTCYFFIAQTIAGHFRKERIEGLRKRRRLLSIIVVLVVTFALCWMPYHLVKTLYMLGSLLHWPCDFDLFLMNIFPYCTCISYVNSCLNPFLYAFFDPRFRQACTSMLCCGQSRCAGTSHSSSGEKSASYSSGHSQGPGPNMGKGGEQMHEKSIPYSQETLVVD

For this assay, the target named is APJ receptor (Homo sapiens (Human), UniProt P35414). The experiment in a line: [35S]GTPγS binding assay on membranes from CHO cells stably expressing human APJ receptor. Type of assay: biochemical. The settings on record: membranes of CHO cells stably expressing human APJ receptor, means of several independent experiments, read-out: Activity hAPJ SPA EC50 IP. An outline of the steps:
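Membranes from CHO cells stably expressing human APJ were incubated with 0.2 nM [35S]GTPγS and ligands for 90 min at RT in 20 mM HEPES pH 7.5, 5 mM MgCl2, 200 mM NaCl, 3 μM GDP, 0.1% BSA with WGA PS beads. Nonspecific binding was set with 100 μM GTPγS. EC50 came from non-linear regression.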
As to `COc1cccc(OC)c1-n1c(NS(=O)(=O)[C@H]2C[C@@H](O)CN(c3nc(C)cc(C)n3)C2)nnc1-c1ccc(C)o1` (single isomer, unassigned) [Example 336.0, (3S,5R)—N-(4-(2,6-Dimethoxyphenyl)-5-(5-methylfuran-2-yl)-4H-1,2,4-triazol-3-yl)-1-(4,6-dimethylpyrimidin-2-yl)-5-hydroxypiperidine-3-sulfonamide or (3R,5S)—N-(4-(2,6-dimethoxyphenyl)-5-(5-methylfuran-2-yl)-4H-1,2,4-triazol-3-yl)-1-(4,6-dimethylpyrimidin-2-yl)-5-hydroxypiperidine-3-sulfonamide], the pEC50 is 9.26. Regarding `COc1cccc(OC)c1-n1c(NS(=O)(=O)[C@H]2C[C@@H](O)CN(C(=O)N(C)C)C2)nnc1-c1ccc(C)o1` (single isomer, unassigned) [Example 337.0, (3S,5R)-3-(N-(4-(2,6-Dimethoxyphenyl)-5-(5-methylfuran-2-yl)-4H-1,2,4-triazol-3-yl)sulfamoyl)-5-hydroxy-N,N-dimethylpiperidine-1-carboxamide or (3R,5S)-3-(N-(4-(2,6-dimethoxyphenyl)-5-(5-methylfuran-2-yl)-4H-1,2,4-triazol-3-yl)sulfamoyl)-5-hydroxy-N,N-dimethylpiperidine-1-carboxamide], the pEC50 was 8.89. Regarding `COc1cccc(OC)c1-n1c(NS(=O)(=O)[C@H]2CCCN(S(=O)(=O)C(C)C)C2)nnc1-c1ccco1` (single isomer, unassigned) [Example 339.0, (S)—N-(4-(2,6-Dimethoxyphenyl)-5-(furan-2-yl)-4H-1,2,4-triazol-3-yl)-1-(isopropylsulfonyl)piperidine-3-sulfonamide or (R)—N-(4-(2,6-dimethoxyphenyl)-5-(furan-2-yl)-4H-1,2,4-triazol-3-yl)-1-(isopropylsulfonyl)piperidine-3-sulfonamide], the negative logarithm of the EC50 (pEC50) was 7.21. The value for `COc1cccc(OC)c1-n1c(NS(=O)(=O)[C@@H]2CCCN(C(=O)N(C)C)C2)nnc1-c1ccco1` (single isomer, unassigned) [Example 340.0, (S)-3-(N-(4-(2,6-Dimethoxyphenyl)-5-(furan-2-yl)-4H-1,2,4-triazol-3-yl)sulfamoyl)-N,N-dimethylpiperidine-1-carboxamide or (R)-3-(N-(4-(2,6-dimethoxyphenyl)-5-(furan-2-yl)-4H-1,2,4-triazol-3-yl)sulfamoyl)-N,N-dimethylpiperidine-1-carboxamide] was 7.12; that for `COc1cccc(OC)c1-n1c(NS(=O)(=O)[C@@H](C)CN2C(=O)CCC[C@]2(C)C#N)nnc1-c1ccco1` (single isomer, unassigned) [Example 341.0] was 7.09. Take `COc1cccc(OC)c1-n1c(NS(=O)(=O)[C@H](C)CN2C(=O)CCC[C@]2(C)C#N)nnc1-c1ccco1` (single isomer, unassigned) [Example 342.0]: the negative logarithm of the EC50 (pEC50) was 6.92. `COc1cccc(OC)c1-n1c(NS(=O)(=O)[C@H]2CON(C)[C@@H]2c2ncc(F)cn2)nnc1-c1ccco1` (single isomer, unassigned) [Example 343.0, (3R,4R)—N-(4-(2,6-Dimethoxyphenyl)-5-(furan-2-yl)-4H-1,2,4-triazol-3-yl)-3-(5-fluoropyrimidin-2-yl)-2-methylisoxazolidine-4-sulfonamide or (3S,4S)—N-(4-(2,6-dimethoxyphenyl)-5-(furan-2-yl)-4H-1,2,4-triazol-3-yl)-3-(5-fluoropyrimidin-2-yl)-2-methylisoxazolidine-4-sulfonamide]: the pEC50 was 6.70. The result for `COc1cccc(OC)c1-n1c(NS(=O)(=O)[C@@H]2COCC[C@@H]2O)nnc1-c1ccc(C)o1` (single isomer, unassigned) [Example 402.0] reads 7.19; that for `COc1cccc(OC)c1-n1c(NS(=O)(=O)[C@@H]2COCC[C@@H]2O)nnc1-c1ccc(C)o1` (single isomer, unassigned) [Example 403.0], 7.24; that for `COc1cccc(OC)c1-n1c(NS(=O)(=O)[C@@H]2COCC[C@@H]2O)nnc1-c1ccc(C)o1` (single isomer, unassigned) [Example 404.0], 7.44. As for `COc1cccc(OC)c1-n1c(NS(=O)(=O)[C@@H]2COCC[C@@H]2O)nnc1-c1ccc(C)o1` (single isomer, unassigned) [Example 405.0], the pEC50 was 7.19. The result for `COc1cccc(OC)c1-n1c(NS(=O)(=O)[C@@H]2CC[C@@H](O)[C@H](O)C2)nnc1-c1ccc(C)o1` (single isomer, unassigned) [Example 406.0] reads 7.17; that for `COc1cccc(OC)c1-n1c(NS(=O)(=O)[C@@H]2CC[C@@H](O)[C@H](O)C2)nnc1-c1ccc(C)o1` (single isomer, unassigned) [Example 407.0], 6.74.

On to `COc1cccc(OC)c1-n1c(NS(=O)(=O)c2cccc([C@H](C)O)c2)nnc1-c1ccc(C)o1` (single isomer, unassigned) [Example 410.0, (R)-N-(4-(2,6-dimethoxyphenyl)-5-(5-methylfuran-2-yl)-4H-1,2,4-triazol-3-yl)-3-(1-hydroxyethyl)benzenesulfonamide or (S)-N-(4-(2,6-dimethoxyphenyl)-5-(5-methylfuran-2-yl)-4H-1,2,4-triazol-3-yl)-3-(1-hydroxyethyl)benzenesulfonamide], for which the pEC50 was 7.96.

`COc1cccc(OC)c1-n1c(NS(=O)(=O)c2cccc([C@@H](C)O)c2)nnc1-c1ccc(C)o1` (single isomer, unassigned) [Example 411.0, (R)-N-(4-(2,6-dimethoxyphenyl)-5-(5-methylfuran-2-yl)-4H-1,2,4-triazol-3-yl)-3-(1-hydroxyethyl)benzenesulfonamide or (S)-N-(4-(2,6-dimethoxyphenyl)-5-(5-methylfuran-2-yl)-4H-1,2,4-triazol-3-yl)-3-(1-hydroxyethyl)benzenesulfonamide]: the pEC50 is 7.49. Turning to `COc1cccc(OC)c1-n1c(NS(=O)(=O)[C@H](C)[C@H](O)c2cccc(Cl)n2)nnc1-c1ccc(C)o1` (stereo in doubt) [Example 85.0], the pEC50 is 9.77. For the compound `COc1cccc(OC)c1-n1c(NS(=O)(=O)[C@H](C)[C@H](O)c2cccc(C)n2)nnc1-c1ccc(C)o1` (stereo in doubt) [Example 87.0], the pEC50 is 9.39. The value for `COc1cccc(OC)c1-n1c(NS(=O)(=O)[C@H](C)[C@H](O)c2ccccn2)nnc1-c1ccc(C)o1` (stereo in doubt) [Example 90.0, (1R,2R)-N-(4-(2,6-dimethoxyphenyl)-5-(5-methylfuran-2-yl)-4H-1,2,4-triazol-3-yl)-1-hydroxy-1-(pyridin-2-yl)propane-2-sulfonamide compound and (1S,2S)-N-(4-(2,6-dimethoxyphenyl)-5-(5-methylfuran-2-yl)-4H-1,2,4-triazol-3-yl)-1-hydroxy-1-(pyridin-2-yl)propane-2-sulfonamide] was 8.41. The value for `COc1cccc(OC)c1-n1c(NS(=O)(=O)CCN2Cc3ccccc3C2=O)nnc1-c1ccco1` [Example 2.0, N-(4-(2,6-Dimethoxyphenyl)-5-(2-furanyl)-4H-1,2,4-triazol-3-yl)-2-(1-oxo-1,3-dihydro-2H-isoindol-2-yl)ethanesulfonamide] was 4.89.

By pEC50 is commonly meant −log10 of the EC50, conventionally taken in molar units.
